Results: patent US8513232B2, “Substituted spirocyclic piperidine derivatives as histamine-3 (H3) receptor ligands” (Cephalon, Inc., priority 2008, dated 2013)
pKi: −log10 of the molar value. Where two headings read alike, the source gives them in different places.

Columns and labels:
[1] = biological target: T1, human H3 receptor (Homo sapiens, UniProt Q9Y5N1); assay: Human H3 radioligand binding ([3H]-N-alpha-methylhistamine, SPA)
T1 construct: expressed in transfected cells
Procedure, shortened: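 Compounds (0.01 nM-30 μM) competed with approximately 1 nM [3H]-N-alpha-methylhistamine for human H3 receptor in membranes of stably transfected CHO cells, 10 μg protein per well, in Tris-HCl pH 7.4/MgCl2/BSA buffer for 4 h at room temperature. Bound radioligand measured by scintillation proximity; 10 μM clobenpropit gave non-specific binding.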

[2] = biological target: T2, rat histamine H3 receptor (Rattus norvegicus, UniProt Q9QYN8); assay: Rat H3 radioligand binding ([3H]-N-alpha-methylhistamine, SPA)
T2 construct: encoding the entire 445-amino-acid rat histamine H3 receptor; expressed in transfected cells; membrane preparation
T2 sequence (Q9QYN8 whole entry): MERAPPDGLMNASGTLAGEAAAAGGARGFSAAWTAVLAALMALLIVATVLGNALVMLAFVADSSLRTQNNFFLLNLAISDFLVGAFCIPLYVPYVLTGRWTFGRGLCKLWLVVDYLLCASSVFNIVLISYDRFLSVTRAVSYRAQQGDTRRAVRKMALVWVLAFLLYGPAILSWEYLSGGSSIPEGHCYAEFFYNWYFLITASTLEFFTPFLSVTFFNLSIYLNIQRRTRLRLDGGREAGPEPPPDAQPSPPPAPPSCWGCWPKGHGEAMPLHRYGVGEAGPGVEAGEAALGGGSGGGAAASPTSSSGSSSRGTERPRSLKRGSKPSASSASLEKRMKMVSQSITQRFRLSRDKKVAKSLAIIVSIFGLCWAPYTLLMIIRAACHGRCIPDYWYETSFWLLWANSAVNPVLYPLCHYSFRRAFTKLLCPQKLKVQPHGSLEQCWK
Procedure, shortened: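 SPA-bead binding assay using [3H]-N-alpha-methylhistamine (approximately 1 nM final) with test compounds from 0.01 nM to 30 μM. Rat H3 receptor membranes came from stably transfected CHO-A3 cells; incubation ran 4 h at room temperature, in the dark, in Tris pH 7.4 buffer with MgCl2 and BSA. Clobenpropit (10 μM) gave non-specific binding.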

[3] = human H3 binding, Table D, read-out: Human H3 Ki
[4] = rat H3 binding, Table D, read-out: Rat H3 Ki
[5] = Human H3 binding, Table B, Examples 136-362, read-out: hum H3 binding Ki
[6] = Rat H3 binding, Table B, Examples 136-362, read-out: rat H3 binding Ki
[7] = Table A, human H3 binding, read-out: Human Ki
[8] = Table A, rat H3 binding, read-out: Rat Ki

T1 sequence (Q9Y5N1 whole entry): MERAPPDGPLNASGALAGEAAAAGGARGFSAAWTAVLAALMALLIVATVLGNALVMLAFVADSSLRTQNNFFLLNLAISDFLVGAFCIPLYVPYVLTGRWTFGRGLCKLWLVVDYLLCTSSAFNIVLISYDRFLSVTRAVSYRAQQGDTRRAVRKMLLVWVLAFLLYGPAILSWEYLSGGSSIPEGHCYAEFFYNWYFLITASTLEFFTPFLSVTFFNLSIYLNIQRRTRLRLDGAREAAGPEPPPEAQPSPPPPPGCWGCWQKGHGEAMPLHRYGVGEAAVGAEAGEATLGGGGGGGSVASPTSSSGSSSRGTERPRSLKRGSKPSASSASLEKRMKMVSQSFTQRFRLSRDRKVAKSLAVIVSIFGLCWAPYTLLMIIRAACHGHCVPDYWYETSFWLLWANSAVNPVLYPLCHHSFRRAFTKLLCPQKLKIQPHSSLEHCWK

Row | pKi [1, 3] | pKi [2, 4] | melting point | Structure (SMILES) | other results
1 | > 6.70 | > 6.70 | 156 to 160 °C | CCc1cc(OC)ncc1-c1ccc2c(c1)COC1(CCN(C3CCC3)CC1)O2 [Example 802] | –
2 | > 6.70 | > 6.70 | 147.7 to 149.8 °C | CCS(=O)(=O)C1CCN(c2ccc3c(c2)COC2(CCN(C4CCC4)CC2)O3)CC1 [Example 648] | –
3 | – | – | 202 to 203 °C | COC(=O)c1ccc(N2CCN(c3ccc4c(c3)CCC3(CCN(C5CCC5)CC3)O4)CC2)nc1 [Example 385] | pKi ([1]; Table C, human H3 binding, read-out: Human H3 Ki): > 6.70; pKi ([2]; Table C, rat H3 binding, read-out: Rat H3 Ki): > 6.70
4 | – | – | 77.9 to 79.9 °C | CC(=O)N[C@@H]1CCN(c2ccc3c(c2)COC2(CCN(C4CCC4)CC2)O3)C1 [Example 343] | pKi [1, 5]: > 6.70; pKi [2, 6]: > 6.70
5 | > 6.70 | > 6.70 | 282 to 284 °C | COc1cc(C(=O)O)ccc1-c1ccc2c(c1)COC1(CCN(C3CCC3)CC1)O2 [Example 699] | –
6 | – | – | 120 to 121 °C | CO[C@H]1CCN(C(=O)c2ccc(-c3ccc4c(c3)COC3(CCN(C5CCC5)CC3)O4)cc2)C1 [Example 191] | pKi [1, 5]: > 6.70; pKi [2, 6]: > 6.70
7 | > 6.70 | > 6.70 | 142 to 145 °C | O=C(NC[C@@H]1CCCO1)c1c(F)cc(-c2ccc3c(c2)COC2(CCN(C4CCC4)CC2)O3)cc1F [Example 599] | –
8 | > 6.70 | > 6.70 | 230 to 240 °C (dec.) | O=C(O)c1cc(-c2ccc3c(c2)COC2(CCN(C4CCC4)CC2)O3)cs1 [Example 570] | –
9 | – | – | 64 to 66 °C | OC1(c2ccc3c(c2)COC2(CCN(C4CCC4)CC2)O3)CCC1 [Example 501] | pKi ([1]; read-out: Human H3 Ki): > 6.70; pKi ([2]; read-out: Rat H3 kI): > 6.70
10 | > 6.70 | > 6.70 | 86 to 88 °C | COc1cc(-c2ccc3c(c2)COC2(CCN(C4CCC4)CC2)O3)ccc1C(=O)NC1CCOCC1 [Example 635] | –
11 | > 6.70 | > 6.70 | 125 to 127 °C | O=c1ccc(-c2ccc3c(c2)COC2(CCN(C4CCC4)CC2)O3)cn1C(F)F [Example 737] | –
12 | – | – | 140 to 145 °C | Fc1cncc(-c2ccc3c(c2)COC2(CCN(C4CCC4)CC2)O3)c1 [Example 4] | pKi [1, 7]: > 6.70; pKi [2, 8]: > 6.70
13 | – | – | 206 to 208 °C | CNC(=O)c1ccc(Nc2ccc3c(c2)COC2(CCN(C4CCC4)CC2)O3)cc1 [Example 285] | pKi [1, 5]: > 6.70; pKi [2, 6]: > 6.70
14 | – | – | 194 to 196 °C | COCCN1CC(COc2ccc3c(c2)CCC2(CCN(C4CCC4)CC2)O3)CC1=O (stereo not drawn) [Example 515] | pKi ([1]; read-out: Human H3 Ki): > 6.70; pKi ([2]; read-out: Rat H3 kI): > 6.70
15 | – | – | 190.8 to 192 °C | CC(=O)NC1CCN(c2ccc3c(c2)COC2(CCN(C4CCC4)CC2)O3)CC1 [Example 328] | pKi [1, 5]: > 6.70; pKi [2, 6]: > 6.70
16 | – | – | 80 to 82 °C | CNC(=O)c1ccc(-c2ccc3c(c2)CCC2(CCN(C4CCC4)CC2)O3)cc1C#N [Example 246] | pKi [1, 5]: > 6.70; pKi [2, 6]: > 6.70
17 | – | – | 97 to 99 °C | c1cc2c(cc1OCC1CCOC1)CCC1(CCN(C3CCC3)CC1)O2 (stereo not drawn) [Example 463] | pKi ([1]; read-out: Human H3 Ki): > 6.70; pKi ([2]; read-out: Rat H3 kI): > 6.70
18 | > 6.70 | > 6.70 | 217 to 219 °C | COCc1cc(=O)[nH]cc1-c1ccc2c(c1)COC1(CCN(C3CCC3)CC1)O2 [Example 798] | –
19 | – | – | 184 to 186 °C | O=C(c1ccc(-c2ccc3c(c2)COC2(CCN(C4CCC4)CC2)O3)cc1)N1CC[C@H](F)C1 [Example 68] | pKi [1, 7]: > 6.70; pKi [2, 8]: > 6.70
20 | > 6.70 | > 6.70 | 179 to 180 °C | c1c[nH]c(-c2ccc3c(c2)COC2(CCN(C4CCC4)CC2)O3)c1 [Example 702] | –
21 | < 6.00 | < 6.00 | 247 to 249 °C | CN(C)C(=O)C1CC(N2CCC3(CC2)OCc2cc(-c4ccc(=O)[nH]c4)ccc2O3)C1 (stereo not drawn) [Example 735] | –
22 | – | – | 232 to 234 °C | O=C(Nc1ccc2c(c1)COC1(CCN(C3CCC3)CC1)O2)c1ccc2ncsc2c1 [Example 316] | pKi [1, 5]: > 6.70; pKi [2, 6]: > 6.70
23 | – | – | 120 to 125 °C | c1ccc(COc2cc(-c3ccc4c(c3)COC3(CCN(C5CCC5)CC3)O4)ccn2)cc1 [Example 548] | pKi ([1]; read-out: Human H3 Ki): > 6.70; pKi ([2]; read-out: Rat H3 kI): > 6.70
24 | – | – | 236 to 238 °C | C(=C\c1ccc2c(c1)CCC1(CCN(C3CCC3)CC1)O2)/c1ccc(OCc2ccccc2)nc1 [Example 537] | pKi ([1]; read-out: Human H3 Ki): 6.00 to 6.70; pKi ([2]; read-out: Rat H3 kI): < 6.00
